Assay results: ChEMBL document CHEMBL1153679, “Structural requirements for biological activity of the marine alkaloid ascididemin” (Bioorg Med Chem Lett, 1995)
pIC50: −log10 of the molar value. ≈ marks a conversion by molar mass, not a printed value.

What was measured:
[1] = system: CHO; test: In vitro cytotoxic activity against DNA-double strand break repair deficient Chinese Hamster Ovary (CHO) cell-line xrs-6; assay type: functional, cell-based; settings: Cricetulus griseus
[2] = system: Bacillus subtilis; test: Antimicrobial activity against gram positive Bacillus subtilis at a dose of 120 ug; assay type: functional
[3] = system: P388; test: In vitro cytotoxic activity against mouse leukemia (P388 ) cell line; assay type: functional, cell-based
[4] = system: Trichophyton benhamiae; test: Antimicrobial activity against Trichophyton mentagrophytes fungus at a dose of 120 ug; assay type: functional
[5] = system: CHO; test: Hypersensitivity Factor (HF2) towards DNA-double strand break repair deficient Chinese Hamster Ovary (CHO) cell-line EM9 versus wild type BR1([…]); assay type: functional, Cricetulus griseus
[6] = system: MCF7; test: In vitro cytotoxic activity against human breast (MCF-7) cell line; assay type: functional, cell-based
[7] = system: Escherichia coli; test: Antimicrobial activity against gram negative Escherichia coli at a dose of 120 ug; assay type: functional
[8] = system: Amorphotheca resinae; test: Antimicrobial activity against Cladosporium resinae fungus at a dose of 120 ug; assay type: functional
[9] = system: HCT-116; test: In vitro cytotoxic activity against human colon (HCT116) cell line; assay type: functional, cell-based
[10] = system: CHO; test: Hypersensitivity Factor(HF) towards DNA-double strand break repair deficient Chinese Hamster Ovary (CHO) cell-line xrs-6 versus wild type BR1(IC50 BRI/IC50 xrs-6); assay type: functional, Cricetulus griseus
[11] = system: Pseudomonas aeruginosa; test: Antimicrobial activity against gram negative Pseudomonas aeruginosa at a dose of 120 ug; assay type: functional
[12] = system: Candida albicans; test: Minimum inhibitory concentration against Candida albicans fungus at a dose of 120 microg; assay type: functional
[13] = system: Candida albicans; test: Antimicrobial activity against Candida albicans fungus at a dose of 120 ug; assay type: functional
[14] = system: CHO; test: In vitro cytotoxic activity against DNA-double strand break repair deficient Chinese Hamster Ovary (CHO) cell-line EM9; assay type: functional, cell-based; settings: Cricetulus griseus
[15] = system: CHO; test: In vitro cytotoxic activity towards DNA-double strand break repair deficient Chinese Hamster Ovary (CHO) cell-line EM9; assay type: functional, cell-based; settings: Cricetulus griseus
[16] = system: BSC-1; test: In vitro cytotoxic activity against non-malignant african green monkey kidney cell-line (BSC-1); ranges from 4.5-5 mm; assay type: functional, Cercopithecidae
[17] = system: Candida albicans; test: Antimicrobial activity against Candida albicans fungus at a dose of 120 microg; assay type: functional
[18] = system: CHO; test: Hypersensitivity Factor(HF) against DNA-double strand break repair deficient Chinese Hamster Ovary (CHO) cell-line xrs-6 versus wild type BR1(IC50 BRI/IC50 xrs-6); assay type: functional, Cricetulus griseus
[19] = system: BSC-1; test: In vitro cytotoxic activity against non-malignant african green monkey kidney cell-line (BSC-1); ranges from 3.5-4.5 mm; assay type: functional, Cercopithecidae
[20] = system: Candida albicans; test: Minimum inhibitory concentration against Candida albicans fungus at a dose of 120 ug; assay type: functional

| MIC [12] [mg/L] | MIC [20] [mg/L] | Structure (SMILES) | pIC50 [1] | Excess zone radius [2] [mm] | pIC50 [3] | Excess zone radius [4] [mm] | HF2 [5] | pIC50 [6] | Excess zone radius [7] [mm] | Excess zone radius [8] [mm] | pIC50 [9] | HF [10] | Excess zone radius [11] [mm] | Excess zone radius [13] [mm] | pIC50 [14] | pIC50 [15] | Excess zone radius [16] [mm] | Excess zone radius [17] [mm] | HF [18] | Excess zone radius [19] [mm] |
| --- | --- | --- | --- | --- | --- | --- | --- | --- | --- | --- | --- | --- | --- | --- | --- | --- | --- | --- | --- | --- |
| 0.39 (≈ 1.38 µM) | – | O=C1c2ccccc2-c2nccc3c2c1nc1ccccc13 [BENZOSAMPANGINE] | 4.74 | 8 | 5.80 | 10 | 0.2 | < 3.46 | 0 | 0 | < 3.46 | 1 | 0 | 12 | 4.74 | – | – | – | – | – |
| – | – | O=C1c2cccnc2-c2nccc3c2c1nc1ccccc13 [ASCIDIDEMIN] | 7.52 | 14 | 6.40 | 0 | 1 | 6.52 | 10 | 10 | 6.52 | – | 0 | – | – | 6.52 | 4.5 | 11 | 10 | – |
| – | – | Cc1c2c(nc3ccccc13)C(=O)c1cccnc1C2=O | – | 10 | 4.25 | 0 | – | – | 0 | 6 | – | – | 0 | 1 | – | – | – | – | – | 3.5 |
| – | 25 (≈ 91.5 µM) | Cc1c2c(nc3ccccc13)C(=O)c1ccccc1C2=O | – | 3 | 4.41 | 0 | – | – | 0 | 0 | – | – | 0 | – | – | – | – | – | – | – |
